{"source": "paper PMC12498136", "about": "“Synthesis and biological evaluation of novel carnosic acid derivatives with anticancer activity” (RSC Advances, 2025)", "format_in_all_cases": "cell-based", "key": {"SW480 cells [1]": {"system": "SW480 cells", "assay": "Cell proliferation assay and cell doubling time", "conditions": "6.3 μM, ln(2)/cell growth rate", "excerpt": "Cell growth rates represent a characteristic of cell lines, indicating the rate at which the cell population size changes over time.[29] The commonly used metric for assessing the cell growth rate is the cell doubling time, which denotes the time required for a cell population to double in size. Cell doubling time can be estimated using the following formula: ln(2)/cell growth rate.[30] A time-dependent cell growth curve was constructed to elucidate the effect of compound 17 on the growth pattern of SW480 cells (Fig. 4). […] The cell concentration at each time point allowed us to determine the cell growth rate and subsequently calculate the cell doubling time. Compound 17 induced an increase in the doubling time of SW480 cells (69 h) compared to the control group (43 h). In summary, compound 17 affected the growth pattern of SW480 cells by increasing the cell doubling time, consequently decreasing the cell growth rate.\nSW480 cells (1.68 × 10^5 cells per well) were seeded in 6-well plates and incubated at 37 °C for 24 h. The cells were then treated with compound 17 (IC50 value) for 24, 48 or 72 h. […] Cell viability was determined using the Invitrogen Countess 3 Automated Cell Counter (Thermo Fisher Scientific, Waltham, MA, USA). […]"}, "Mia Paca-2 cells": {"system": "Mia Paca-2 cells", "assay": "MTT cell viability assay in Mia Paca-2 cells", "conditions": "Homo sapiens, MIA PaCa-2, 72 h, read-out: IC50 Mia Paca-2", "method": "(§1) The MTT assay was used to assess the effect of the compounds on cell viability. For this purpose, A375 (1500 cells per well), BJ (10 000 cells per well), Caco-2 (4000 cells per well), HCT116 (3000 cells per well), Mia Paca-2 (2000 cells per well), SW480 (6000 cells per well), and SW620 (8000 cells per well) cells were seeded in 96-well plates and incubated for 24 h. Subsequently, the culture medium was switched with a new medium containing DMSO (control) or the compound at a specified concentration. Following a 72 h incubation period, the supernatant was aspirated, and 100 μL of a mixture (1 : 1) of filtered MTT solution (1 mg per mL PBS) and FBS-free medium was added. The plates were then incubated for 1 h at 37 °C. After this time, the supernatant was aspirated, and the formazan crystals were dissolved in 100 μL of DMSO in each well. Relative cell viability was calculated by measuring absorbance at 570 nm using a Benchmark Plus Microplate Reader (Bio-Rad Laboratories, Hercules, CA, USA). Results are presented as the mean ± standard deviation (SD) of IC50 values, determined by nonlinear regression analysis of dose–response curves (log(inhibitor) vs. response with variable slope (four parameters)) using GraphPad Prism 9 software (GraphPad Software, San Diego, CA, USA)."}, "[2]": {"system": "intracellular ROS levels in SW480 cells", "assay": "Intracellular ROS quantification assay (H2DCFDA, flow cytometry)", "conditions": "SW480, 6.3 μM", "method": "Intracellular ROS levels can be quantified using lipophilic and non-fluorescent probes, such as 2′,7′-dichlorodihydrofluorescein diacetate (H2DCFDA).[60] To assess the effect of compound 17 on intracellular ROS levels, SW480 cells were treated with compound 17, followed by incubation with the H2DCFDA probe after 24, 48, and 72 h of treatment. After, the cells were subjected to flow cytometry to quantify the fluorescence intensity of 2′,7′-dichlorofluorescein (DCF), as shown in Fig. 9. […] Both effects of compound 17 contributed to the inhibition of SW480 cell growth.\nSW480 cells were seeded at a density of 1.68 × 10^5 cells per well in 6-well plates and incubated at 37 °C for 24 h. The cells were then treated with compound 17 (IC50 value) for 24, 48, or 72 h. The adherent cells were trypsinized, washed with DPBS, collected by centrifugation, and resuspended in 1 mL of HBSS containing 50 μM H2DCFDA probe and 2 mM L-glutamine. After 45 min of incubation at 37 °C in a cell culture incubator, the cell suspensions were washed with 2 mL DPBS and collected by centrifugation. The cells were then stained with 350 μL of DPBS containing 20 μg per mL PI solution (1 mg mL^−1). Inside the cells, the H2DCFDA probe is deacetylated and undergoes oxidation in the presence of ROS, transforming into a DCF fluorescent compound. The fluorescence emitted by DCF from 1 × 10^4 PI-negative cells was measured at 520 nm using a Gallios flow cytometer (Beckman Coulter, Brea, CA, USA)."}, "SW480 cells [3]": {"system": "SW480 cells", "assay": "MTT cell viability assay in SW480 cells", "method": "as §1"}, "SW480 cells [4]": {"system": "SW480 cells", "assay": "Apoptosis assay (annexin V-FITC/PI, flow cytometry)", "conditions": "SW480, 6.3 μM, 24, 48 or 72 h", "method": "Our objective was to assess whether the anticancer activity observed in SW480 cells treated with compound 17 results from the activation of apoptosis.\nSW480 cells were seeded at a density of 1.68 × 10^5 cells per well in 6-well plates and incubated at 37 °C. […] Adherent cells were harvested by trypsinization, and they were washed with DPBS and collected by centrifugation along with the cells in suspension. Cells were resuspended in 3 μL annexin V FITC and 95 μL binding buffer containing 140 mM NaCl, 2.5 mM CaCl2, and 10 mM HEPES/NaOH (pH 7.4). The cell suspension was then incubated in the dark, at room temperature for 30 min. The cells were then stained with 510 μL of a mixture containing 500 μL of binding buffer and 10 μL of PI solution (1 mg mL^−1). Finally, data from 1 × 10^4 cells were collected through fluorescence activated cell sorting (FACS) analysis using a Gallios flow cytometer (Beckman Coulter, Brea, CA, USA) at 488 nm."}, "[5]": {"conditions": "SW480 cells, ratio of IC50 values"}}, "data": [{"smiles": "CC(=O)Oc1c(C(C)C)cc2c(c1OC(C)=O)[C@@]1(NC(=O)OCC(C)C)CCCC(C)(C)[C@@H]1CC2", "note": "[Compound 17, (4bR,8aS)-8,8-Dimethyl-4b-{[(2-methylpropoxy)carbonyl]amino}-2-(propan-2-yl)-4b,5,6,7,8,8a,9,10-octahydrophenanthrene-3,4-diyl diacetate]", "values": [{"measurement": "cell doubling time", "setting": "SW480 cells [1]", "result": 69, "unit": "h"}, {"measurement": "IC50", "setting": "Mia Paca-2 cells", "result": "7.5 ± 0.6", "unit": "µM"}, {"measurement": "intracellular ROS levels relative to untreated cells", "setting": "[2]; 24 h (control 100%)", "result": 70, "unit": "%"}, {"measurement": "intracellular ROS levels relative to untreated cells", "setting": "[2]; 48 h (control 100%)", "result": 157, "unit": "%"}, {"measurement": "intracellular ROS levels relative to untreated cells", "setting": "[2]; 72 h (control 100%)", "result": 290, "unit": "%"}, {"measurement": "IC50", "setting": "SW480 cells [3]; Homo sapiens, SW480, 72 h, read-out: IC50 SW480", "result": "6.3 ± 0.5", "unit": "µM"}, {"measurement": "fold more active than cisplatin", "setting": "SW480 cells [3]; [5]", "result": 2.4, "unit": "fold"}, {"measurement": "fold more potent than CA 1", "setting": "SW480 cells [3]; [5]", "result": 3.5, "unit": "fold"}, {"measurement": "induction of apoptosis", "setting": "SW480 cells [4]", "result": "did not induce apoptosis"}]}]}
